# Data from patent US5756423A, “Method of controlling plants by inhibition of farnesyl pyrophosphate synthase” (Zeneca Limited, priority 1997, dated 1998).
# Read-outs that look alike come from different tables or passages of the source.
# Assays:
# [1] = test system: wild mustard (Brassica kaber), also known as Sinapis arvensis (SINAR); test: post-emergent herbicidal test, wild mustard; type: in vivo; details: for pest or weed control at 1000 g/ha / pest or weed control at 4000 g/ha: Brassica, post-emergence, read-out: SINAR percent control
# Text: (§1) Seeds of several different weed species were planted in sandy loam soil containing only trace organic matter. Propagules were sown in individuals rows using one species per row across the width of an aluminum flat (19.5×9.5×6 cm). The grass weeds planted were green foxtail (Setaria viridis) ("SETVI"), wild oat (Avena fatua) ("AVEFA"), barnyard grass (Enchinochloa crusgalli) ("ECHCG"). Broadleaf weeds utilized were wild mustard (Brassica kaber), also known as Sinapis arvensis, ("SINAR"), velvetleaf (Abutilon theophrasti) ("ABUTH") and morningglory (Ipomoea spp.) ("IPOSS"). Additionally, yellow nutsedge (Cyperus esculentus) ("CYPES"), nutlets were sown. Seeding depths ranged from 1.0 to 1.5 cm and plant densities ranged from 3 to 25 plants per row depending on individual plant species.
# (§2) The flats were placed into a greenhouse and watered overhead by sprinkling. The greenhouse environmental systems provided the plants with natural and artificial (via metal halide lamps) lighting to attain 14 hours of light per day. Day and night temperatures were maintained at 29° and 21° C. respectively. The plants were grown for 10 to 12 days (or to the appropriate growth stage) prior to compound application. Grasses were sprayed at a 3 to 4 leaf stage and broadleaves at a 1 to 2 leaf stage. Yellow nutsedge was 5 to 7 cm tall at application.
# (§3) Solutions of the test compounds were prepared by weighing out 18.8 and 74.7 mg for 1 and 4 kg/ha applications respectively, of the test compound into a 60 ml wide-mouth bottle, then dissolving the compound in 14.0 ml of deionized water containing 0.5% v/v Tween 20' (polyoxyethylene sorbitan monolaurate emulsifier) as a surfactant. Additional solvents, not exceeding 2 ml (15% of spray volume), were used if needed to dissolve the compound.
# (§4) The plants were sprayed inside an enclosed linear spray table with the nozzle set at 30.5 cm (12 inches) above the foliage.
# (§5) Treated plants were then returned to a greenhouse and watered daily without wetting the foliage.
# (§6) The degree of weed control was evaluated 17-21 days after application and recorded as percentage of control as compared to the growth of the same species in an untreated control flat of the same. Percent control is the total injury to the plants due to all factors including: inhibited emergence, stunting, malformation, chlorosis and other types of plant injury. The control ratings range from 0 to 100 percent, where 0% represents no effect with growth equal to the untreated control and where 100% represents complete kill.
# [2] = test system: barnyard grass (Enchinochloa crusgalli) (ECHCG); test: post-emergent herbicidal test, barnyard grass; type: in vivo; details: for pest or weed control at 1000 g/ha / pest or weed control at 4000 g/ha: Echinochloa crus-galli, post-emergence, read-out: ECHCG percent control
# Text: as §1, §2, §3, §4, §5, §6
# [3] = test system: morningglory (Ipomoea spp.) (IPOSS); test: post-emergent herbicidal test, morningglory; type: in vivo; details: for pest or weed control at 1000 g/ha / pest or weed control at 4000 g/ha: Ipomoea, post-emergence, read-out: IPOSS percent control
# Text: as §1, §2, §3, §4, §5, §6
# [4] = test system: yellow nutsedge (Cyperus esculentus) (CYPES); test: post-emergent herbicidal test, yellow nutsedge; type: in vivo; details: for pest or weed control at 1000 g/ha / pest or weed control at 4000 g/ha: Cyperus, post-emergence, read-out: CYPES percent control
# Text: as §1, §2, §3, §4, §5, §6
# [5] = test system: velvetleaf (Abutilon theophrasti) (ABUTH); test: post-emergent herbicidal test, velvetleaf; type: in vivo; details: for pest or weed control at 1000 g/ha / pest or weed control at 4000 g/ha: Abutilon theophrasti, post-emergence, read-out: ABUTH percent control
# Text: as §1, §2, §3, §4, §5, §6
# [6] = test system: green foxtail (Setaria viridis) (SETVI); test: post-emergent herbicidal test, green foxtail; type: in vivo; details: for pest or weed control at 1000 g/ha / pest or weed control at 4000 g/ha: Setaria viridis, post-emergence, read-out: SETVI percent control
# Text: as §1, §2, §3, §4, §5, §6
# [7] = test system: farnesyl pyrophosphate synthase in daffodil chromoplasts; test: inhibition of farnesyl pyrophosphate synthase in daffodil chromoplasts (14C-isopentenyl pyrophosphate incorporation); type: biochemical, Narcissus pseudonarcissus; details: unit inferred, IC50 values in nM, read-out: IC50
# Description: The IC50 value may be determined as follows. Daffodil chromoplasts are diluted to a volume of 500 microliters in a buffer containing 0.5M sucrose, 3 mM MgCl2, 1 mM ethylenediaminetetraacetic acid, 20 mM N-tris[hydroxymethyl]methyl-2-aminoethanesulfonic acid, […] N-[2-hydroxyethyl]-piperazine-N'-[2-ethanesulfonic acid], 5 mM L-cysteine, 10 mM sodium fluoride, and 0.1% bovine serum albumin at pH 7.7. The inhibitor to be tested may be dissolved in water other suitable solvent and then added to the reaction mixture. The assay is started by the addition of ^14 C-labeled isopentenyl pyrophosphate (52 Ci/mol) to give a final concentration in the assay of about 3 micromolar. The mixture is incubated at 30° C. with gentle agitation for a period of about 30 min. The reaction may be stopped by the addition of 0.5 mL of saturated NaCl and 2 mL of n-butanol saturated with water. After thorough mixing, the turbid suspensions are centrifuged briefly to separate the layers, and 1 mL of the bright yellow upper butanol layer is added to 10 mL of a suitable scintillation fluid which gives a single phase. The butanol soluble radioactivity is then measured in a scintillation counter.
# In addition, the problem of variable quenching differences among different experiments can be essentially eliminated by determining the incorporation of radioactivity relative to controls. Each set of experiments requires two control tubes identical to the test samples except that they contain no inhibitor. One of these is quenched immediately (TO sample) and one is quenched at the end of the normal incubation period (T100 sample).
# For each concentration of inhibitor examined the % residual activity is determined from the formula [formula]
# Tightly closed daffodil flowers (Narcissus pseudonarcissus) were allowed to open at room temperature. […] Coronae were placed in twice their weight of isolation buffer consisting of 67 mM potassium phosphate, 0.74M sucrose, 5 mM MgCl2, and 0.2% polyvinyl-pyrrolidone at pH 7.6 and were disrupted by 30 seconds of homogenization at high speed in a Waring-type blender. The mixture was filtered through several layers of cheesecloth and 2 layers of 100 micron nylon mesh, and the resulting filtrate was centrifuged at 1000×g for 10 minutes. The pellet was discarded and supernatant was centrifuged at 22,000×g for 20 minutes. […] This solution was centrifuged at 22,000×g for 20 minutes to give orange pellets which were suspended in a buffer of 100 mM tris(hydroxymethyl)aminomethane at pH 7.6 containing 5mM MgCl2 and 2 mM dithiothreitol (1 ml per 10 coronae). This solution was frozen in liquid nitrogen and then stored at -80° C.
# Thawed daffodil chromoplasts (100-150 microliters) were diluted to a final volume of 500 microliters in a buffer containing 0.5M sucrose, 3 mM MgCl2, 1 mM ethylenediaminetetraacetic acid, 10 mM N-[2-hydroxyethyl]piperazine-N^1 -[2-ethanesulfonic acid], 5 mM L-cysteine, 10 mM sodium fluoride, and 0.1% bovine serum albumin at pH 7.7. The inhibitor to be tested was dissolved in water or other suitable solvent and was added to the reaction mixture. The assay was started by the addition of ^14 C-labeled isopentenyl pyrophosphate (52 Ci/mol) to give a final concentration in the assay of about 3 micromolar. The mixture was incubated at 30° C. with gentle agitation for a period of about 30 minutes. The reaction was stopped by the addition of 0.5 mL of saturated NaCl and 2 mL of n-butanol saturated with water. After thorough mixing, the turbid suspensions were centrifuged briefly to separate the layers, and 1 mL of the bright yellow upper butanol layer was added to 10 mL of a suitable scintillation fluid which gave a single phase. The butanol soluble radioactivity was then measured in a scintillation counter. Each set of experiments required two control tubes identical to the test samples except that they contain no inhibitor.
# [8] = test system: wild oat (Avena fatua) (AVEFA); test: post-emergent herbicidal test, wild oat; type: in vivo; details: for pest or weed control at 1000 g/ha / pest or weed control at 4000 g/ha: Avena fatua, post-emergence, read-out: AVEFA percent control
# Text: as §1, §2, §3, §4, §5, §6
# [9] = post-emergent, 1.0 kg/ha (*), 17-21 days after application
# [10] = post-emergent, 4.0 kg/ha, 17-21 days after application
IC50 ([7]; Table I) [nM],IC50 ([7]; Table II) [nM],Compound,"pest or weed control at 1000 g/ha [1, 9] [%]","pest or weed control at 1000 g/ha [2, 9] [%]","pest or weed control at 1000 g/ha [3, 9] [%]","pest or weed control at 1000 g/ha [4, 9] [%]","pest or weed control at 1000 g/ha [5, 9] [%]","pest or weed control at 1000 g/ha [6, 9] [%]","pest or weed control at 1000 g/ha [8, 9] [%]",other results
1230,1230,CC(NCC(P(=O)(O)O)P(=O)(O)O)c1ccccc1 (stereo not drawn) [Compound 27],–,–,–,–,–,–,–,"SINAR percent control [1, 9]: 100%; ECHCG percent control [2, 9]: 90%; IPOSS percent control [3, 9]: 5%; CYPES percent control [4, 9]: 75%; ABUTH percent control [5, 9]: 75%; SETVI percent control [6, 9]: 90%; AVEFA percent control [8, 9]: 80%"
87,87,CCCCN(CCC)CC(P(=O)(O)O)P(=O)(O)O [Compound 52],100,100,20,20,75,100,100,–
> 500000,> 500000,O=P(O)(O)C(CNNc1c(Cl)cc(C(F)(F)F)cc1Cl)P(=O)(O)O [Compound 36],–,–,–,–,–,–,–,"pest or weed control at 4000 g/ha [1, 10]: 0%; pest or weed control at 4000 g/ha [2, 10]: 0%; pest or weed control at 4000 g/ha [3, 10]: 0%; pest or weed control at 4000 g/ha [4, 10]: 0%; pest or weed control at 4000 g/ha [5, 10]: 0%; pest or weed control at 4000 g/ha [6, 10]: 0%; pest or weed control at 4000 g/ha [8, 10]: 0%"

# Second part, the molecule before the results:
Compound,IC50 ([7]; Table I) [nM],IC50 ([7]; Table II) [nM],"pest or weed control at 1000 g/ha [1, 9] [%]","pest or weed control at 1000 g/ha [2, 9] [%]","pest or weed control at 1000 g/ha [3, 9] [%]","pest or weed control at 1000 g/ha [4, 9] [%]","pest or weed control at 1000 g/ha [5, 9] [%]","pest or weed control at 1000 g/ha [6, 9] [%]","pest or weed control at 1000 g/ha [8, 9] [%]",other results
O=P(O)(O)C(CN[C@@H]1C[C@H]1c1ccccc1)P(=O)(O)O (relative stereo) [Compound 63],2090,2090,10,5,5,0,20,10,0,–
O=P(O)(O)C(CN1C=NCCC1)P(=O)(O)O [Compound 65],50,50,100,100,100,5,100,100,95,–
CN(C)CC(P(=O)(O)O)P(=O)(O)O [Compound 8],2900,2900,–,–,–,–,–,–,–,pest or weed control at 4000 g/ha [1]: 85%; pest or weed control at 4000 g/ha [2]: 5%; pest or weed control at 4000 g/ha [3]: 5%; pest or weed control at 4000 g/ha [4]: 0%; pest or weed control at 4000 g/ha [5]: 0%; pest or weed control at 4000 g/ha [6]: 50%; pest or weed control at 4000 g/ha [8]: 5%
CCCNCC(P(=O)(O)O)P(=O)(O)O [Compound 3],30,30,–,–,–,–,–,–,–,pest or weed control at 1000 g/ha [1]: 100%; pest or weed control at 1000 g/ha [2]: 100%; pest or weed control at 1000 g/ha [3]: 95%; pest or weed control at 1000 g/ha [4]: 30%; pest or weed control at 1000 g/ha [5]: 70%; pest or weed control at 1000 g/ha [6]: 100%; pest or weed control at 1000 g/ha [8]: 100%
C=CCN(CC)CC(P(=O)(O)O)P(=O)(O)O [Compound 40],88,88,95,90,10,10,10,80,85,–
CC(C)N(C)CC(P(=O)(O)O)P(=O)(O)O [Compound 33],178,178,100,100,65,10,50,95,100,–
CC1CCCN(CC(P(=O)(O)O)P(=O)(O)O)C1 (stereo not drawn) [Compound 21],385,385,30,30,10,5,0,50,50,–
